Test results taken from patent US7462614B2, “Imidazotriazine compounds” (Smithkline Beecham Corporation, priority 2003, dated 2008).

These molecules were tested against T1, truncated human PLK1 (kinase domain) (Homo sapiens, UniProt P53350) (assay: Assay for Inhibition of PLK1 (33P SPA enzyme activity)). Details: 1 μM ATP, 2 nM enzyme; read-out: Ave pIC50 PLK Enzyme Inhibition (converted).
T1 construct: made in house; host or cells: baculovirus-infected T. ni insect cells
Format: biochemical
Method: I. Assay for Inhibition of PLK1
A. Preparation of 6× N-Terminal His-Tagged PLK Kinase Domain
All procedures are performed at 4° C. Cells are lysed in 25 mM HEPES, 200 mM NaCl, 25 mM imidazole; pH 8.0. The homogenate is centrifuged at 14K rpm in a SLA-1500 rotor for 40 min and the supernatant filtered through a 1.2 micron filter. The supernatant is loaded onto a Nickel chelating Sepharose (Amersham Pharmacia) column and washed with 25 mM HEPES, 500 mM NaCl, 25 mM imidazole; pH 8.0. […] PLK is concentrated using a 10 kDa molecular weight cutoff membrane and then loaded onto a Superdex 75 gel filtration (Amersham BioSciences) column equilibrated in 25 mM HEPES, 1 mM DTT, 500 mM NaCl; pH 8.0. Fractions containing PLK are determined by SDS-PAGE. PLK is pooled, aliquoted and stored at […]. Samples are quality controlled using mass spectrometry.
B. Enzyme Activity±Inhibitors is Determined As Follows:
Compounds are added to the plate (1 μL in 100% DMSO).
Immediately upon addition of enzyme and thorough mixing, add 20 uL per well into 384-well white plates containing compounds and controls. […] The enzymatic reaction is stopped with 50 μl of bead mix (50 mM EDTA, 2 mg/ml Streptavidin-coated SPA beads in Standard Dulbecco's PBS (without Mg^2+and Ca^2+), and 60 μM ATP).

T1 sequence (P53350 21-346): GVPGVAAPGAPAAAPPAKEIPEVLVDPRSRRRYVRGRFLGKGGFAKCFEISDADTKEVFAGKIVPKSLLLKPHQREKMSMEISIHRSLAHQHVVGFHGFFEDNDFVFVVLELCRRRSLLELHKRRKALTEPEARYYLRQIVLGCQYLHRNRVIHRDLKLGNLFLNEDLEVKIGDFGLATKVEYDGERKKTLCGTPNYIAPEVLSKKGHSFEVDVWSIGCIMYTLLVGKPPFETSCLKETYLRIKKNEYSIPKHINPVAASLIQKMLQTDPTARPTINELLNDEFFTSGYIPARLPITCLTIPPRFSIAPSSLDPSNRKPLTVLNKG

SMILES | IC50
COc1cc(Nc2ncc3c(C)nc(-c4cn(C)c5ccccc45)n3n2)cc(OC)c1OC [Example 35, 5-Methyl-7-(1-methyl-1H-indol-3-yl)-N-(3,4,5-trimethoxyphenyl)-imidazo[5,1-f][1,2,4]triazin-2-amine] | 0.1 to 10 µM
COc1cc(Nc2ncc3c(C)nc(-c4ccccc4Sc4ccccc4C#N)n3n2)cc(OC)c1OC [Example 38, 2-[(2-{5-Methyl-2-[(3,4,5-trimethoxyphenyl)amino]imidazo[5,1-f][1,2,4]triazin-7-yl}phenyl)thio]benzonitrile] | 0.1 to 10 µM
CCS(=O)(=O)c1ccc(OC)c(Nc2cccc(-c3nc(C)c4cnc(Nc5cc(OC)c(OC)c(OC)c5)nn34)c2)c1 [Example 63, 7-(3-{[5-(Ethylsulfonyl)-2-methoxyphenyl]amino}phenyl)-5-methyl-N-(3,4,5-trimethoxyphenyl)imidazo[5,1-f][1,2,4]triazin-2-amine] | > 10 µM
COc1cc(Nc2ncc3c(C)nc(-c4sccc4Br)n3n2)cc(OC)c1OC [Example 10, 7-(3-Bromothien-2-yl)-5-methyl-N-(3,4,5-trimethoxyphenyl)-imidazo[1,5-f][1,2,4]triazin-2-amine] | 0.1 to 10 µM
Cc1nc(-c2cccc(C(F)(F)F)c2)n2nc(Nc3ccc(OCCN4CCCC4)cc3)ncc12 [Example 50, 5-Methyl-N-[4-(2-pyrrolidin-1-ylethoxy)phenyl]-7-[3-(trifluoromethyl)phenyl]imidazo[5,1-f][1,2,4]triazin-2-amine] | 0.1 to 10 µM
COc1cc(Nc2ncc3c(C)nc(-c4cccc(Nc5ccc(N6CCOCC6)c(Cl)c5)c4)n3n2)cc(OC)c1OC [Example 66, 7-{3-[(3-Chloro-4-morpholin-4-ylphenyl)amino]phenyl}-5-methyl-N-(3,4,5-trimethoxyphenyl)imidazo[5,1-f][1,2,4]triazin-2-amine] | 0.1 to 10 µM
COc1cc(Nc2ncc3c(C)nc(-c4ccc([N+](=O)[O-])[nH]4)n3n2)cc(OC)c1OC [Example 33, 5-Methyl-7-(5-nitro-1H-pyrrol-2-yl)-N-(3,4,5-trimethoxyphenyl)-imidazo[5,1-f][1,2,4]triazin-2-amine] | 0.1 to 10 µM
COc1cc(Nc2ncc3c(C)nc(-c4cncc(Br)c4)n3n2)cc(OC)c1OC [Example 11, 7-(5-Bromopyridin-3-yl)-5-methyl-N-(3,4,5-trimethoxyphenyl)-imidazo[5.1-f][1,2,4]triazin-2-amine] | 0.1 to 10 µM
Cc1nc(-c2ccccc2)n2nc(NC3CCOCC3)ncc12 [Example 101, 5-Methyl-7-phenyl-N-(tetrahydro-2H-pyran-4-yl)imidazo[5,1-f][1,2,4]triazin-2-amine] | > 10 µM
COc1cc(Nc2ncc3c(C)nc(-c4ccc5c(c4)OCO5)n3n2)cc(OC)c1OC [Example 28, 7-(1,3-Benzodioxol-5-yl)-5-methyl-N-(3,4,5-trimethoxyphenyl)-imidazo[5,1-f][1,2,4]triazin-2-amine] | 0.1 to 10 µM
COc1cc(Nc2ncc3c(C)nc(-c4cccc(-c5cccc(C(=O)O)c5)c4)n3n2)cc(OC)c1OC [Example 59, 3′-{5-Methyl-2-[(3,4,5-trimethoxyphenyl)amino]imidazo[5,1-f][1,2,4]triazin-7-yl}-1,1′-biphenyl-3-carboxylic acid] | 0.1 to 10 µM
COc1ccc(Nc2ncc3c(C)nc(C4CCOCC4)n3n2)cc1 [Example 72, 5-Methyl-N-[4-(methyloxy)phenyl]-7-(tetrahydro-2H-pyran-4-yl)imidazo[5,1-f][1,2,4]triazin-2-amine] | 0.1 to 10 µM
COc1cc(Nc2ncc3c(C)nc(-c4cccc5cccnc45)n3n2)cc(OC)c1OC [Example 40, 5-Methyl-7-quinolin-8-yl-N-(3,4 5-trimethoxyphenyl)imidazo[5,1-f][1,2,4]triazin-2-amine] | > 10 µM
COc1cc(Nc2ncc3c(C)nc(-c4cccc(Nc5cccc(S(=O)(=O)NC6CC6)c5)c4)n3n2)cc(OC)c1OC [Example 69, N-Cyclopropyl-3-[(3-{5-methyl-2-[(3,4,5-trimethoxyphenyl)amino]imidazo[5,1-f][1,2,4]triazin-7-yl}phenyl)amino]benzenesulfonamide] | 0.1 to 10 µM
COc1cc(Nc2ncc3c(C)nc(C4CCCCC4)n3n2)cc(OC)c1OC [Example 90, 7-Cyclohexyl-5-methyl-N-[3,4,5-tris(methyloxy)phenyl]imidazo[5,1-f][1,2,4]triazin-2-amine] | 0.1 to 10 µM
Cc1nc(-c2cccc(C(F)(F)F)c2)n2nc(Nc3ccc(S(N)(=O)=O)cc3)ncc12 [Example 45, 4-({5-Methyl-7-[3-(trifluoromethyl)phenyl]imidazo[5,1-f][1,2,4]triazin-2-yl}amino)benzenesulfonamide] | 0.1 to 10 µM
Cc1nc(-c2cccc(Br)c2)n2nc(Nc3ccc(N4CCOCC4)c(Cl)c3)ncc12 [Example 15, 7-(3-Bromophenyl)-N-(3-chloro-4-morpholin-4-ylphenyl)-5-methylimidazo[5,1-f][1,2,4]triazin-2-amine] | 0.1 to 10 µM
COC(=O)c1cccc(-c2nc(C)c3cnc(Nc4cc(OC)c(OC)c(OC)c4)nn23)c1 [Example 12, Methyl 3-{5-methyl-2-[(3,4,5-trimethoxyphenyl)amino]imidazo[5,1-f][1,2,4]triazin-7-yl}benzoate] | 0.1 to 10 µM
COc1cc(Nc2ncc3c(C)nc(-c4ccccc4Nc4cccc(C(F)(F)F)c4)n3n2)cc(OC)c1OC [Example 39, 5-Methyl-7-(2-{[3-(trifluoromethyl)phenyl]amino}phenyl)-N-(3,4,5-trimethoxyphenyl)imidazo[5,1-f][1,2,4]triazin-2-amine] | > 10 µM

Second part, the molecule after the results:

IC50 | SMILES
0.1 to 10 µM | COc1ccc(Nc2ncc3c(C)nc(-c4sccc4Br)n3n2)cc1 [Example 71, 7-(3-Bromo-2-thienyl)-5-methyl-N-[4-(methyloxy)phenyl]imidazo[5,1-f][1,2,4]triazin-2-amine]
0.1 to 10 µM | COc1ccc(Nc2ncc3c(C)nc(-c4ccccc4OC)n3n2)cc1 [Example 73, 5-Methyl-7-[2-(methyloxy)phenyl]-N-[4-(methyloxy)phenyl]-imidazo[5,1-f][1,2,4]triazin-2-amine]
0.1 to 10 µM | COc1ccc(F)cc1Nc1ncc2c(C)nc(-c3cccc(C(F)(F)F)c3)n2n1 [Example 51, N-(5-Fluoro-2-methoxyphenyl)-5-methyl-7-[3-(trifluoromethyl)phenyl]-imidazo[5,1-f][1,2,4]triazin-2-amine]
0.1 to 10 µM | CC(=O)Nc1ccc(Nc2ncc3c(C)nc(-c4ccccc4)n3n2)cc1 [Example 94, N-{4-[(5-Methyl-7-phenylimidazo[5,1-f][1,2,4]triazin-2-yl)amino]phenyl}acetamide]
0.1 to 10 µM | COc1ccc(Nc2ncc3c(C)nc(-c4ccc(Br)s4)n3n2)cc1 [Example 70, 7-(5-Bromo-2-thienyl)-5-methyl-N-[4-(methyloxy)phenyl]imidazo[5.1-f][1,2,4]triazin-2-amine]
0.1 to 10 µM | COc1cc(Nc2ncc3c(C)nc(-c4cccc(/C(=C\C(N)=O)c5ccccc5)c4)n3n2)cc(OC)c1OC [Example 62, (2Z)-3-(3-{5-Methyl-2-[(3,4,5-trimethoxyphenyl)amino]-imidazo[5,1-f][1,2,4]triazin-7-yl}phenyl)-3-phenylprop-2-enamide]
0.1 to 10 µM | Cc1nc(-c2ccccc2)n2nc(Nc3cccc(C(F)(F)F)c3)ncc12 [Example 26, 5-Methyl-7-phenyl-N-[3-(trifluoromethyl)phenyl]imidazo[5,1-f][1,2,4]triazin-2-amine]
> 10 µM | COc1ccc(Nc2ncc3c(C)nc(C(C)c4ccccc4)n3n2)cc1 (stereo not drawn) [Example 77, 5-Methyl-N-[4-(methyloxy)phenyl]-7-(1-phenylethyl)imidazo[5,1-f][1,2,4]triazin-2-amine]
0.1 to 10 µM | COc1ccc(Nc2ncc3c(C)nc(-c4ccc(OC)cc4)n3n2)cc1 [Example 87, 5-Methyl-N,7-bis[4-(methyloxy)phenyl]imidazo[5,1-f][1,2,4]triazin-2-amine]
0.1 to 10 µM | COc1ccc(Nc2ncc3c(C)nc(-c4cccs4)n3n2)cc1 [Example 83, 5-Methyl-N-[4-(methyloxy)phenyl]-7-(2-thienyl)imidazo[5,1-f][1,2,4]triazin-2-amine]
0.1 to 10 µM | Cc1nc(-c2ccccc2)n2nc(Nc3ccc(OCCN(C)C)cc3)ncc12 [Example 96, N-(4-{[2-(Dimethylamino)ethyl]oxy}phenyl)-5-methyl-7-phenylimidazo[5.1-f][1,2,4]triazin-2-amine]
0.1 to 10 µM | COc1cccc(Nc2ncc3c(C)nc(-c4ccccc4)n3n2)c1 [Example 106, 5-Methyl-N-[3-(methyloxy)phenyl]-7-phenylimidazo[5,1-f][1,2,4]triazin-2-amine]
0.1 to 10 µM | COc1ccc(OC)c(Nc2ncc3c(C)nc(-c4cccc(C(F)(F)F)c4)n3n2)c1 [Example 55, N-(2,5-Dimethoxyphenyl)-5-methyl-7-[3-(trifluoromethyl)phenyl]-imidazo[5,1-f][1,2,4]triazin-2-amine]
0.1 to 10 µM | COc1ccc(Nc2ncc3c(C)nc(-c4ccc(F)cc4)n3n2)cc1 [Example 82, 7-(4-Fluorophenyl)-5-methyl-N-[4-(methyloxy)phenyl]-imidazo[5,1-f][1,2,4]triazin-2-amine]
